The subject of one test is RAW264.7. As to the kind of experiment: Inhibition of LPS-induced NO overproduction in mouse RAW264.7 cells at 1 uM incubated for 2 hrs followed by LPS stimulation and measured after 22 hrs by Griess reagent based assay relative to control. It counts as functional. To be noted: for inhibition at 1 µM: Mus musculus, RAW264.7.
Test [1] concerns the target T1, Bromodomain-containing protein 4 (Homo sapiens, UniProt O60885). The experiment in a line: Displacement of tetra-acetylated histone H4 peptide (1-21) from recombinant human N-terminal His-tagged BRD4 BD2 (349 to 460 residues) expressed in Escherichia coli incubated for 30 mins followed by further incubation with tetra-acetylated histone H4 peptide (1-21) for 30 mins by Alphascreen assay. On the technique in general: In Alpha technology, singlet oxygen from a donor bead excites a nearby acceptor bead.

The target of test [2] is T1, Bromodomain-containing protein 4. As to the kind of experiment: Displacement of tetra-acetylated histone H4 peptide (1-21) from recombinant human N-terminal His-tagged BRD4 BD1 (44 to 170 residues) expressed in Escherichia coli incubated for 30 mins followed by further incubation with tetra-acetylated histone H4 peptide (1-21) for 30 mins by Alphascreen assay.
The target is the same in test [3]. As to the kind of experiment: Binding affinity to recombinant human N-terminal His-tagged BRD4 BD1 (44 to 170 residues) expressed in Escherichia coli assessed as change in melting temperature at 10 uM by SYPRO Orange based differential scanning fluorimetry. A general note: Differential scanning fluorimetry follows unfolding on heating by fluorescence.

This note sets out measurements from ChEMBL document CHEMBL4354830, “Discovery of Benzo[cd]indol-2(1H)-ones and Pyrrolo[4,3,2-de]quinolin-2(1H)-ones as Bromodomain and Extra-Terminal Domain (BET) Inhibitors with Selectivity for the First Bromodomain with Potential High Efficiency against Acute Gouty Arthritis” (J Med Chem, 2019).

The inhibition is the relative decrease from the control value, in per cent. What is called IC50 is the concentration at which inhibition is half-maximal. In the case of `COc1ccccc1S(=O)(=O)Nc1ccc2c3c(cc(N4CCOCC4)nc13)C(=O)N2C`, the inhibition at 1 µM with RAW264.7 stood at 100%. The IC50 was found to be 808 nM in test [1] and 95.2 nM in test [2].
For orientation: ΔTm means the change in melting temperature against a reference sample. Regarding `COc1cc(Cl)ccc1S(=O)(=O)Nc1ccc2c3c(cccc13)C(=O)N2C`, the thermal shift (ΔTm) in test [3] came out at 7.1 °C. Also, the IC50 in test [1] is 3470 nM; in test [2], 299 nM.
On to `COc1ccccc1S(=O)(=O)Nc1ccc2c3c(cc(-c4cnn(C5CC5)c4)cc13)C(=O)N2C`, for which the inhibition at 1 µM with RAW264.7 amounted to 83.7%. Also, the IC50 in test [1] was 238 nM; in test [2], 14.4 nM.
For `CN1CCN(c2cc3c4c(ccc(NS(=O)(=O)c5ccc(Cl)cc5)c4n2)N(C)C3=O)CC1`, the 50% inhibitory concentration (IC50) in test [2] worked out at 391 nM.
Consider `CCCn1cc(-c2cc3c4c(ccc(NS(=O)(=O)c5ccccc5OC)c4c2)N(C)C3=O)cn1`, for which the inhibition at 1 µM in the test with RAW264.7 turned out to be 106%. The results for the IC50 in test [1] and in test [2] were 266 nM and 43.7 nM, respectively.
Regarding `Cc1ccc(S(=O)(=O)Nc2ccc3c4c(ccnc24)C(=O)N3C)cc1`, the ΔTm in test [3] came out at 5.12 °C. Further, the concentration for half-maximal inhibition (IC50) in test [1] was 6620 nM; in test [2], 1570 nM.
Turning to `COc1ccccc1S(=O)(=O)Nc1ccc2c3c(cc(NCC4CCN(C)CC4)nc13)C(=O)N2C`, the inhibition at 1 µM with RAW264.7 was 47.2%. The concentration for half-maximal inhibition (IC50) was 1280 nM in test [1] and 113 nM in test [2].
For `CN1C(=O)c2cccc3c(NS(=O)(=O)c4cccc5cccnc45)ccc1c23`, the shift in melting temperature (ΔTm) in test [3] was determined as 4.13 °C. The IC50 in test [1] is 260 nM; in test [2], 329 nM.
`COc1ccccc1S(=O)(=O)Nc1ccc2c3c(cc(-c4cnn(C)c4)nc13)C(=O)N2C`: the IC50 in test [1] was 289 nM; in test [2], 12.6 nM.
Take `COc1ccccc1S(=O)(=O)Nc1ccc2c3c(cc(-c4ccoc4)cc13)C(=O)N2C`: the 50% inhibitory concentration (IC50) in test [2] was found to be 164 nM.
With `COc1ccccc1S(=O)(=O)Nc1ccc2c3c(cc(-c4ccoc4)nc13)C(=O)N2C`, in the test with RAW264.7, the inhibition at 1 µM came to 66.3%. Moreover, the half-maximal inhibitory concentration (IC50) came to 459 nM in test [1] and 37 nM in test [2].
On to `O=C1Nc2ccc(NS(=O)(=O)c3ccc(Cl)cc3)c3cccc1c23`, for which, in test [3], the ΔTm was determined as 3.73 °C. For the same compound, the half-maximal inhibitory concentration (IC50) in test [1] is 15500 nM; in test [2], 769 nM.
With `COc1ccccc1S(=O)(=O)Nc1ccc2c3c(cc(NCCN4CCN(C)CC4)nc13)C(=O)N2C`, the inhibition at 1 µM with RAW264.7 turned out to be 39.6%. Also, the IC50 amounted to 1520 nM in test [1] and 223 nM in test [2].
Regarding `CCCn1cc(-c2cc3c4c(ccc(NS(=O)(=O)c5ccc(Cl)cc5OC)c4c2)N(C)C3=O)cn1`, the half-inhibitory concentration (IC50) in test [1] came to 320 nM; in test [2] it was 107 nM.
Consider `CN1C(=O)c2cccc3c(NS(=O)(=O)c4ccccc4Cl)ccc1c23`, for which the thermal shift (ΔTm) in test [3] amounted to 5.37 °C. Moreover, the half-maximal inhibitory concentration (IC50) in test [1] is 6050 nM; in test [2], 1530 nM.
Consider `COc1ccccc1S(=O)(=O)Nc1ccc2c3c(cc(-c4cnn(Cc5ccccc5)c4)cc13)C(=O)N2C`, for which, in test [2], the IC50 stood at 205 nM.
Turning to `CN1C(=O)c2cccc3c(NS(=O)(=O)c4c(F)cccc4F)ccc1c23`, in test [3], the thermal shift (ΔTm) was determined as 3.73 °C. Also, the IC50 in test [2] is 9070 nM.
As to `CCOC(=O)CC1CCN(c2cc3c4c(ccc(NS(=O)(=O)c5ccccc5OC)c4n2)N(C)C3=O)CC1`, the 50% inhibitory concentration (IC50) in test [2] is 709 nM.
As to `CN1C(=O)c2cc(N3CCOCC3)nc3c(NS(=O)(=O)c4ccc(Cl)cc4)ccc1c23`, in test [2], the concentration for half-maximal inhibition (IC50) was 217 nM.
As to `CCN1C(=O)c2cccc3c(NS(=O)(=O)c4ccc(Cl)cc4)ccc1c23`, in test [3], the ΔTm is 6.36 °C. Moreover, the values for the half-maximal inhibitory concentration (IC50) in test [1] and in test [2] were 2720 nM and 237 nM, respectively.
As for `CN1C(=O)c2cccc3c(NS(=O)(=O)c4cccnc4)ccc1c23`, in test [3], the ΔTm turned out to be 2.3 °C. The IC50 in test [1] was found to be 13700 nM; in test [2] it was 2440 nM.
As for `COc1ccccc1S(=O)(=O)Nc1ccc2c3c(cc(N4CCN(C(=O)OC(C)(C)C)CC4)nc13)C(=O)N2C`, the half-maximal inhibitory concentration (IC50) was 2170 nM in test [1] and 334 nM in test [2].
Turning to `CN1C(=O)c2cccc3c(NS(=O)(=O)c4ccccc4OC(F)(F)F)ccc1c23`, in test [3], the shift in melting temperature (ΔTm) is 4.73 °C. The half-maximal inhibitory concentration (IC50) in test [2] turned out to be 3890 nM.
With `COc1ccccc1S(=O)(=O)Nc1ccc2c3c(cc(-n4ccnc4)nc13)C(=O)N2C`, the half-inhibitory concentration (IC50) in test [1] is 4110 nM; in test [2] it was 889 nM.
The corresponding values for `COc1ccccc1S(=O)(=O)Nc1ccc2c3c(cc(N4CCC(CO)CC4)nc13)C(=O)N2C` are 29600 nM and 169 nM.
On to `COc1cc(Cl)ccc1S(=O)(=O)Nc1ccc2c3c(cc(-c4cnn(C5CC5)c4)cc13)C(=O)N2C`, for which the results for the IC50 in test [1] and in test [2] were 435 nM and 37.5 nM, respectively.
Consider `CN1C(=O)c2ccnc3c(NS(=O)(=O)c4ccc(Cl)cc4)ccc1c23`, for which the ΔTm in test [3] turned out to be 6.53 °C. The IC50 in test [1] came out at 20500 nM; in test [2], 3470 nM.
`CN1C(=O)c2cccc3c(NS(=O)(=O)c4cccs4)ccc1c23`: in test [3], the ΔTm was determined as 4.02 °C. In test [2], the IC50 was determined as 3720 nM.
Turning to `CN1C(=O)c2cc(Cl)nc3c(NS(=O)(=O)c4ccc(Cl)cc4)ccc1c23`, the 50% inhibitory concentration (IC50) in test [2] turned out to be 2600 nM.
As to `Cc1ccccc1NS(=O)(=O)c1ccc2c3c(cccc13)C(=O)N2C`, the ΔTm in test [3] was 2.23 °C. In addition, in test [2], the concentration for half-maximal inhibition (IC50) turned out to be 15500 nM.
In the case of `COc1ccccc1S(=O)(=O)Nc1ccc2c3c(cc(NC(C)(C)C)nc13)C(=O)N2C`, the IC50 in test [1] was 2080 nM; in test [2], 573 nM.
For `COc1ccccc1S(=O)(=O)Nc1ccc2c3c(cc(N[C@H](C)c4ccccn4)nc13)C(=O)N2C`, in test [2], the IC50 was 2230 nM.
For the compound `COc1ccccc1S(=O)(=O)Nc1ccc2c3c(cc(Cl)nc13)C(=O)N2C`, the half-maximal inhibitory concentration (IC50) in test [2] worked out at 656 nM.
As for `Cc1sc2c(c1C)C(c1ccc(Cl)cc1)=N[C@@H](CC(=O)OC(C)(C)C)c1nnc(C)n1-2`, the “inhibition (INH)” value in the test on RAW264.7 came out at 47.56%.
Consider `CN1C(=O)c2cc(-c3cnn(C)c3)cc3c(NS(=O)(=O)c4ccc(Cl)cc4)ccc1c23`, for which, in test [2], the half-maximal inhibitory concentration (IC50) stood at 348 nM.
In the case of `COc1cc(OC)c2c(=O)[nH]c(-c3cc(C)c(OCCO)c(C)c3)nc2c1` [APABETALONE], the inhibition at 1 µM in the test with RAW264.7 was found to be 9.17%.
For `CN1C(=O)c2cccc3c(NS(=O)(=O)c4cccc(Cl)c4F)ccc1c23`, in test [3], the ΔTm amounted to 4.83 °C. In test [2], the IC50 was determined as 1700 nM.
Regarding `COc1ccccc1S(=O)(=O)Nc1ccc2c3c(cc(-c4cnn(C5CC5)c4)nc13)C(=O)N2C`, the figures for the IC50 in test [1] and in test [2] were 107 nM and 16.6 nM, respectively.
The corresponding values for `COc1ccccc1S(=O)(=O)Nc1ccc2c3c(cc(NCCN4CCCCC4)nc13)C(=O)N2C` are 7070 nM and 328 nM.
Take `Cc1cc(F)ccc1S(=O)(=O)Nc1ccc2c3c(cccc13)C(=O)N2C`: the ΔTm in test [3] came to 4.32 °C. Also, in test [2], the IC50 is 810 nM.
Regarding `COc1ccccc1S(=O)(=O)Nc1ccc2c3c(cc(NCC4CCOCC4)nc13)C(=O)N2C`, the half-maximal inhibitory concentration (IC50) in test [2] came out at 503 nM.
On to `Cc1ccc(S(=O)(=O)Nc2ccc3c4c(cccc24)C(=O)N3C)cc1`, for which the ΔTm in test [3] was determined as 7.36 °C. In addition, the figures for the concentration for half-maximal inhibition (IC50) in test [1] and in test [2] were 2280 nM and 545 nM, respectively.
For `COc1ccccc1S(=O)(=O)Nc1ccc2c3c(cc(NC4CC4)nc13)C(=O)N2C`, the half-maximal inhibitory concentration (IC50) in test [1] was determined as 660 nM; in test [2], 271 nM.
In the case of `CN1C(=O)c2cc(-c3cnn(C4CC4)c3)cc3c(NS(=O)(=O)c4ccc(Cl)cc4)ccc1c23`, in test [2], the half-inhibitory concentration (IC50) was found to be 666 nM.
Take `Cc1ccccc1S(=O)(=O)Nc1ccc2c3c(cccc13)C(=O)N2C`: the ΔTm in test [3] stood at 5.1 °C. In test [2], the concentration for half-maximal inhibition (IC50) came to 709 nM.
